Results from DBAASP.
≈ marks a conversion by molar mass, not a printed value. Where “and” joins values, the source holds several entries; their conditions need not be identical. Equal values may be shown once. Each block holds one molecule with its values, some of them ahead of it.

Experiments:
Assay in all cases: ≥ marks a high value that may be exact or a test limit, other limits are often not marked, values filed in µg/mL are converted to µM
[1] = system: Escherichia coli ATCC 35218
[2] = system: Staphylococcus aureus ATCC BAA-2312
[3] = system: Klebsiella pneumoniae ATCC 49472
[4] = system: Salmonella enterica subsp. enterica serovar Typhimurium ATCC 14028
[5] = system: Enterococcus faecalis ATCC 51299
[6] = system: Klebsiella pneumoniae ATCC BAA-2814
[7] = system: Staphylococcus aureus ATCC 12600
[8] = system: Staphylococcus epidermidis ATCC 12228
[9] = system: Staphylococcus aureus ATCC 25923
[10] = system: Staphylococcus aureus ATCC 29213
[11] = system: Klebsiella pneumoniae ATCC 13866
[12] = system: Pseudomonas aeruginosa ATCC 27853
[13] = system: Escherichia coli ATCC 11229
[14] = system: Staphylococcus aureus ATCC 33591
[15] = system: Lacticaseibacillus rhamnosus 1.0386
[16] = system: Lacticaseibacillus rhamnosus 1.0925
[17] = system: Lacticaseibacillus rhamnosus 1.0911
[18] = system: Lactiplantibacillus plantarum 8014
[19] = system: Staphylococcus aureus ATCC 43300
[20] = system: Lacticaseibacillus rhamnosus 1.0385
[21] = system: Lacticaseibacillus rhamnosus 7469
Escherichia coli UB1005 = system: Escherichia coli UB1005
[22] = system: Aspergillus oryzae NBRC 100959
[23] = system: Staphylococcus epidermidis NBRC 12993
[24] = system: Pseudomonas putida NBRC 100650
[25] = system: Micrococcus luteus NBRC 3333
[26] = system: Candida viswanathii NBRC 10321
[27] = system: Escherichia coli NBRC 3972
[28] = system: Acinetobacter baumannii BCRC 14B0100
[29] = system: Escherichia coli ATCC 25922
Micrococcus luteus A270 = system: Micrococcus luteus A270
Penicillium expansum = system: Penicillium expansum
Cryptococcus neoformans = system: Cryptococcus neoformans
Cladosporium sp. = system: Cladosporium sp.
Escherichia coli SBS 363 = system: Escherichia coli SBS 363

MIC [1]: ≥ 62.5 µM
MIC [2]: ≥ 250 µM
MIC [3]: ≥ 125 µM
MIC [4]: 250 µM (≈ 529 µg/mL)
MIC [5]: ≥ 250 µM
MIC [6]: ≥ 125 µM
MIC [7]: ≥ 250 µM
Compound: CC[C@H](C)[C@H](NC(=O)[C@H](CCC(N)=O)NC(=O)[C@H](CO)NC(=O)[C@H](C)NC(=O)[C@H](CC(C)C)NC(=O)[C@H](Cc1cnc[nH]1)NC(=O)[C@@H](NC(=O)[C@H](CC(C)C)NC(=O)[C@H](CC(C)C)NC(=O)CNC(=O)[C@H](CCCCN)NC(=O)CNC(=O)[C@H](C)NC(=O)CNC(=O)[C@H](CCCCN)NC(=O)[C@H](CC(C)C)NC(=O)[C@H](CC(C)C)NC(=O)[C@H](CC(=O)O)NC(=O)[C@H](CC(C)C)NC(=O)[C@H](CC(C)C)NC(=O)CN)[C@@H](C)O)C(N)=O [GLLDLLKGAGKGLLTHLASQI]

MIC [8]: 32.2 µM (≈ 64 µg/mL)
MIC [9]: 32.2 µM (≈ 64 µg/mL)
MIC [10]: 32.2 µM (≈ 64 µg/mL)
MIC [11]: ≥ 32.2 µM
MIC [12]: 8.04 µM (≈ 16 µg/mL)
MIC [13]: ≥ 32.2 µM
MIC [14]: ≥ 64.3 µM
Compound: CC[C@H](C)[C@H](NC(=O)CN)C(=O)N[C@@H](C)C(=O)NCC(=O)N[C@@H](CC(C)C)C(=O)N[C@@H](CC(C)C)C(=O)N[C@@H](CCCN=C(N)N)C(=O)N[C@@H](CO)C(=O)N[C@@H](Cc1ccccc1)C(=O)N[C@H](C(=O)N[C@@H](CCCN=C(N)N)C(=O)N[C@@H](CCSC)C(=O)N[C@@H](CC(C)C)C(=O)N[C@@H](C)C(=O)N[C@@H](CCCCN)C(=O)N[C@H](C(=O)N[C@@H](CCSC)C(=O)NCC(=O)NCC(=O)O)[C@@H](C)CC)C(C)C [GIAGLLRSFVRMLAKIMGG]

The next lines start with the molecule.

Compound: NC(=O)[C@H](CCCN=C(N)N)NC(=O)[C@H](CCCN=C(N)N)NC(=O)[C@H](Cc1c[nH]c2ccccc12)NC(=O)[C@H](CO)NC(=O)[C@H](Cc1c[nH]c2ccccc12)NC(=O)[C@H](Cc1c[nH]c2ccccc12)NC(=O)[C@H](Cc1c[nH]c2ccccc12)NC(=O)[C@H](CO)NC(=O)[C@H](Cc1c[nH]c2ccccc12)NC(=O)[C@H](CCCN=C(N)N)NC(=O)[C@@H](N)CCCN=C(N)N [RRWSWWWSWRR]
MIC [8]: 4 µM (≈ 6.99 µg/mL)
MIC [15]: ≥ 64 µM
MIC [16]: ≥ 64 µM
MIC [17]: ≥ 64 µM
MIC [12]: 4 µM (≈ 6.99 µg/mL)
MIC [18]: ≥ 64 µM
MIC [19]: 2 µM (≈ 3.49 µg/mL)
MIC [20]: ≥ 64 µM
MIC [21]: ≥ 64 µM
MIC (Escherichia coli UB1005): 2 µM (≈ 3.49 µg/mL)

Compound: CC[C@H](C)[C@H](NC(=O)[C@H](CCCCN)NC(=O)[C@@H](N)CCCN=C(N)N)C(=O)N[C@@H](CCCCN)C(=O)N[C@H](C(=O)N[C@@H](Cc1ccc(O)cc1)C(=O)N[C@@H](CC(C)C)C(=O)N[C@@H](CCCN=C(N)N)C(=O)N[C@@H](CCCN=C(N)N)C(=O)N[C@@H](CCSC)C(=O)N[C@@H](CCCCN)C(=O)O)C(C)C [RKIKVYLRRMK]
MIC [22]: 8.38 µM (≈ 12.5 µg/mL)
MIC [23]: ≥ 33.5 µM
MIC [24]: ≥ 33.5 µM
MIC [25]: 8.38 µM (≈ 12.5 µg/mL)
MIC [26]: 8.38 µM (≈ 12.5 µg/mL)
MIC [27]: 8.38 µM (≈ 12.5 µg/mL)

Compound: CC[C@H](C)[C@H](NC(=O)[C@H](CCCN=C(N)N)NC(=O)[C@H](CCC(N)=O)NC(=O)[C@@H](NC(=O)[C@@H](NC(=O)[C@H](CCCN=C(N)N)NC(=O)[C@H](CCCCN)NC(C)=O)[C@@H](C)CC)C(C)C)C(=O)N[C@@H](CCCCN)C(=O)N[C@@H](CC(=O)O)C(=O)N[C@@H](Cc1ccccc1)C(=O)N[C@@H](CC(C)C)C(=O)N[C@@H](CCCN=C(N)N)C(=O)N[C@@H](C)C(=O)NCC(=O)N1CCC[C@H]1C(=O)N[C@@H](CCCN=C(N)N)C(=O)N[C@@H](CCCN=C(N)N)C(=O)N[C@@H](Cc1c[nH]c2ccccc12)C(=O)N[C@@H](Cc1c[nH]c2ccccc12)C(=O)N[C@@H](CCCN=C(N)N)C(=O)N[C@@H](Cc1c[nH]c2ccccc12)C(N)=O [KRIVQRIKDFLRAGPRRWWRW]
MIC [9]: 1.42 µM and 0.708 µM
MIC [12]: 0.708 µM and 1.42 µM
MIC [28]: 0.708 µM and 1.42 µM
MIC [29]: 1.42 µM and 0.708 µM

Compound: CSCC[C@H](NC(=O)CNC(=O)[C@H](Cc1ccccc1)NC(=O)[C@H](Cc1ccccc1)NC(=O)CNC(=O)[C@H](C)NC(=O)[C@H](C)NC(=O)[C@@H]1CCCN1C(=O)[C@H](C)N)C(=O)N[C@@H](CCCN=C(N)N)C(=O)O [APAAGFFGMR]
MIC (Micrococcus luteus A270): ≥ 164 µM
MIC [12]: 164 µM and > 82 µM
MIC (Penicillium expansum): ≥ 164 µM
MIC (Cryptococcus neoformans): ≥ 164 µM
MIC (Cladosporium sp.): ≥ 164 µM
MIC (Escherichia coli SBS 363): ≥ 82 µM
